{"source": "paper PMC7756782", "about": "“Rational Design of Azastatin as a Potential ADC Payload with Reduced Bystander Killing” (Chemmedchem, 2020)", "key": {"[1]": {"tested_on": "HepG2, HCT116 and RPMI 8226 cells", "experiment": "FMCA cytotoxicity, span over all three tested cell lines", "assay_type": "cell-based", "conditions": "72 h; for IC50: lowest to highest mean IC50 in HepG2, HCT116, RPMI 8226, read-out: IC50 range over the three cell lines", "method": "(§1) Three fundamentally different cell lines were chosen for the assessment of cytotoxicity: HepG2 cells, which derive from a human hepatoblastoma; ^[43] HCT116 cells, a common model for the study of metastatic colorectal carcinoma;[ ^44 , ^45 ] and RPMI 8226 cells, which originate from multiple myeloma. ^[46]\n(§2) The cells, upon overnight cultivation, were treated with MMAE (5), MMAF (6), azastatin‐OMe (7), N‐ethyl azastatin‐OMe (28), N‐Cbz azastatin‐OMe (27) or doxorubicin[ ^47 , ^48 ] at concentrations ranging from 100 μM to 10 pM and after 72 hours of incubation, the survival index relative to control was determined by The Fluorometric Microculture Cytotoxicity Assay (FMCA). ^[49] Based upon the concentration dependent proportion of surviving cells, the half maximal inhibitory concentration (IC50) of each compound was calculated (see Table 1).\n(§3) MMAE and MMAF were purchased from Combi‐Blocks (US). Doxorubicin hydrochloride was obtained from Sigma‐Aldrich/Merck (Germany). HepG2 cells (human hepatocellular carcinoma cells, ATCC), were grown in Eagle's Minimum Essential Medium (ATCC). RPMI 8226 (multiple myeloma cells, ATCC) were grown in complete RPMI medium (ATCC). HCT116 cells (colon carcinoma cells, Anticancer Inc.) were cultured in McCoy′s 5 A Modified Medium (Sigma‐Aldrich). All media were supplemented with 10 % foetal bovine serum, penicillin/streptomycin (100 U/100 μg/mL) and 2 mM L‐glutamine. Cells were seeded in 384‐well assay plates at a density of 1000 cells/well. The cells were incubated over night at 37 °C and test compounds were added, followed incubation for an additional 72 h at 37 °C. The fraction of surviving cells was analysed by a fluorometric microculture cytotoxicity assay, based on hydrolysis of fluorescein diacetate to fluorescein by cells with intact plasma membranes, as recently described. ^[49] IC50‐values were calculated from three independent experiments (see SI, mean±SEM). All tested concentrations were assessed in multiple wells (n=2‐4) in each experiment. The IC50‐values were determined with nonlinear regression analysis using GraphPad Prism 8 Software Package (US)."}, "HepG2 cells": {"tested_on": "HepG2 cells", "experiment": "cells", "assay_type": "cell-based, human", "conditions": "FMCA, 72 h incubation, 37 °C, 384-well, 1000 cells/well, mean and 95 % confidence interval, three independent experiments", "method": "as §1, §2, §3"}, "HCT116 cells": {"tested_on": "HCT116 cells", "experiment": "cells", "assay_type": "cell-based", "conditions": "FMCA, 72 h incubation, 37 °C, 384-well, 1000 cells/well, mean and 95 % confidence interval, three independent experiments", "method": "as §1, §2, §3"}, "RPMI 8226 cells": {"tested_on": "RPMI 8226 cells", "experiment": "cells", "assay_type": "cell-based", "conditions": "FMCA, 72 h incubation, 37 °C, 384-well, 1000 cells/well, mean and 95 % confidence interval, three independent experiments", "method": "as §1, §2, §3"}}, "note": "Structures can show the parent of a compound that is named as a salt. Non-standard residues stand in square brackets, D forms with d. Residues, ends and D or L forms follow the SMILES beside them. Dolaproine = CO[C@@H]([C@@H]1CCCN1)[C@@H](C)C(=O)O; Dil = CC[C@H](C)[C@H](NC)[C@@H](CC(=O)O)OC; NMeV = CN[C@H](C(=O)O)C(C)C", "data": [{"molecule": "CC[C@H](C)[C@@H]([C@@H](CC(=O)N1C[C@@H](NC(=O)OCc2ccccc2)C[C@H]1[C@H](OC)[C@@H](C)C(=O)N[C@@H](Cc1ccccc1)C(=O)OC)OC)N(C)C(=O)[C@@H](NC(=O)[C@H](C(C)C)N(C)C)C(C)C", "note": "[Cbz‐Aza‐OMe, 27, Cbz‐azastatin methyl ester]", "values": [{"measurement": "IC50", "setting": "[1]", "result": "0.00013 to 0.003", "unit": "µM"}, {"measurement": "IC50", "setting": "HepG2 cells", "result": 0.00013, "unit": "µM"}, {"measurement": "IC50", "setting": "HCT116 cells", "result": 0.003, "unit": "µM"}, {"measurement": "IC50", "setting": "RPMI 8226 cells", "result": 0.00015, "unit": "µM"}]}, {"molecule": "COc1cccc2c1C(=O)c1c(O)c3c(c(O)c1C2=O)C[C@@](O)(C(=O)CO)C[C@@H]3O[C@H]1C[C@H](N)[C@H](O)[C@H](C)O1", "note": "[Doxorubicin, Doxorubicin hydrochloride, reference compound]", "values": [{"measurement": "IC50", "setting": "HepG2 cells; Homo sapiens, HepG2", "result": 0.4, "unit": "µM"}, {"measurement": "IC50", "setting": "HCT116 cells; Homo sapiens, HCT-116", "result": 0.44, "unit": "µM"}, {"measurement": "IC50", "setting": "RPMI 8226 cells; Homo sapiens, RPMI-8226", "result": 0.049, "unit": "µM"}]}, {"molecule": "CC[C@H](C)[C@@H]([C@@H](CC(=O)N1CCC[C@H]1[C@H](OC)[C@@H](C)C(=O)N[C@@H](Cc1ccccc1)C(=O)O)OC)N(C)C(=O)[C@@H](NC(=O)[C@@H](NC)C(C)C)C(C)C", "note": "[MMAF, 6, monomethylauristatin F, reference compound] (H-[NMeV]V[Dil][Dolaproine]F-OH)", "values": [{"measurement": "fold less potent than MMAE (5) in each of the cell lines", "setting": "[1]; ratio of IC50 values", "result": "more than 100 fold"}]}, {"molecule": "CC[C@H](C)[C@@H]([C@@H](CC(=O)N1C[C@@H](N)C[C@H]1[C@H](OC)[C@@H](C)C(=O)N[C@@H](Cc1ccccc1)C(=O)OC)OC)N(C)C(=O)[C@@H](NC(=O)[C@H](C(C)C)N(C)C)C(C)C", "note": "[Aza‐OMe, 7, Azastatin methyl ester]", "values": [{"measurement": "IC50", "setting": "[1]", "result": "0.0098 to 0.17", "unit": "µM"}, {"measurement": "IC50", "setting": "HepG2 cells", "result": 0.02, "unit": "µM"}, {"measurement": "IC50", "setting": "HCT116 cells", "result": 0.17, "unit": "µM"}, {"measurement": "IC50", "setting": "RPMI 8226 cells", "result": 0.0098, "unit": "µM"}]}, {"molecule": "CCN[C@H]1C[C@@H]([C@H](OC)[C@@H](C)C(=O)N[C@@H](Cc2ccccc2)C(=O)OC)N(C(=O)C[C@@H](OC)[C@H]([C@@H](C)CC)N(C)C(=O)[C@@H](NC(=O)[C@H](C(C)C)N(C)C)C(C)C)C1", "note": "[N‐Et Aza‐OMe, 28, N‐ethyl azastatin methyl ester]", "values": [{"measurement": "IC50", "setting": "[1]", "result": "0.0048 to 0.1", "unit": "µM"}, {"measurement": "IC50", "setting": "HepG2 cells", "result": 0.011, "unit": "µM"}, {"measurement": "IC50", "setting": "HCT116 cells", "result": 0.1, "unit": "µM"}, {"measurement": "IC50", "setting": "RPMI 8226 cells", "result": 0.0048, "unit": "µM"}]}]}
